target: T1, human mGluR2 (Homo sapiens, UniProt Q14416); experiment: FLIPR Ca2+ mobilization assay, potentiation of mGluR2; assay type: cell-based; settings: CHO dhfr- cells expressing recombinant human mGluR2 and Gα16; potentiation after EC20 glutamate (900 nM); read-out: IC50 (Representative FLIPR EC50 Values)
T1 construct: expressed in transfected cells
Procedure: Activity in potentiating the mGluR2 receptor may be determined as follows. The compounds of the present invention are tested in a fluorescence laser imaging plate reader (FLIPR) based assay. This assay is a common functional assay to monitor Ca^2+ mobilization in whole cells expressing recombinant receptor coupled with a promiscuous G-protein. CHO dhfr-cells stably expressing recombinant human mGluR2 and Gα16 loaded with Fluo-4 AM (Invitrogen, Carlsbad Calif.) are treated with dose responses of compounds and the Ca^2+ response is monitored on a FLIPR384 (Molecular Devices, Sunnydale Calif.) for agonist activity. The potentiation response is monitored after a subsequent addition of an EC20 concentration of glutamate (900 nM). The maximum calcium response at each concentration of compound for agonist or potentiation are plotted as dose responses and the curves are fitted with a four parameters logistic equation giving EC50 and Hill coefficient using the iterative non linear curve fitting software program.

T1 sequence (Q14416 19-872): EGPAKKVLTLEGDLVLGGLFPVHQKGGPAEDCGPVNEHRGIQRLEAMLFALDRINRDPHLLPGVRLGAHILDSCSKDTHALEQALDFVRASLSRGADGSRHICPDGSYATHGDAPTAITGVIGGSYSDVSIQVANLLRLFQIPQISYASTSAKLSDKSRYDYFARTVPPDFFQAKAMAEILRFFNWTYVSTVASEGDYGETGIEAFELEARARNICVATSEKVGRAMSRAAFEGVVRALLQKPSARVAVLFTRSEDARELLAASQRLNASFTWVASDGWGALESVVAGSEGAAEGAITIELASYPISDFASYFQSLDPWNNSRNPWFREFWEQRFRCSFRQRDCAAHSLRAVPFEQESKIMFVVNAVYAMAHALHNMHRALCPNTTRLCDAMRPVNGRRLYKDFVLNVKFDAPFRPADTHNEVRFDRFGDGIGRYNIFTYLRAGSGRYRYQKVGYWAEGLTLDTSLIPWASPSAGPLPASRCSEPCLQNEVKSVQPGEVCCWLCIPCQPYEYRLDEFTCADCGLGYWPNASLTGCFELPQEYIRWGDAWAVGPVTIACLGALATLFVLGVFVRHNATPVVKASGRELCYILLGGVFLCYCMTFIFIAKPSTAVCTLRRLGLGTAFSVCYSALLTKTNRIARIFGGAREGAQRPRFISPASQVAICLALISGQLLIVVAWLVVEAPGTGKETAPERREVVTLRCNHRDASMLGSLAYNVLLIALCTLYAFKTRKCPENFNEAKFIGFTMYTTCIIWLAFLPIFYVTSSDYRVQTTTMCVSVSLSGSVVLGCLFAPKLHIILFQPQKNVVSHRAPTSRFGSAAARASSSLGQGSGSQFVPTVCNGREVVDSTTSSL

| SMILES | EC50 |
| --- | --- |
| Cn1c(=O)n(CC(C)(C)C)c2ccc(-c3cc(Oc4ccnc(C#N)c4)ccc3C#N)nc21 [Compound 16-3, 4-{4-cyano-3-[1-(2,2-dimethylpropyl)-3-methyl-2-oxo-2,3-dihydro-1H-imidazo[4,5-b]pyridin-5-yl]phenoxy}pyridine-2-carbonitrile] | 8 nM |
| Cn1c(=O)n(CC(C)(C)C)c2ccc(-c3cc(CN4CCS(=O)(=O)CC4)ccc3C#N)nc21 [Compound 21-11, 2-[1-(2,2-dimethylpropyl)-3-methyl-2-oxo-2,3-dihydro-1H-imidazo[4,5-b]pyridin-5-yl]-4-[(1,1-dioxidothiomorpholin-4-yl)methyl]benzonitrile] | 34 nM |
| Cn1c(=O)n(CC(C)(C)C)c2ccc(-c3cc(CN4CCN(S(C)(=O)=O)CC4)ccc3C#N)nc21 [Compound 21-45, 2-[1-(2,2-dimethylpropyl)-3-methyl-2-oxo-2,3-dihydro-1H-imidazo[4,5-b]pyridin-5-yl]-4-{[4-(methylsulfonyl)piperazin-1-yl]methyl}benzonitrile] | 21 nM |
| CC(=O)N1CCN(Cc2ccc(C#N)c(-c3ccc4c(n3)n(C)c(=O)n4CC(C)(C)C)c2)CC1 [Compound 21-47, 4-[(4-acetylpiperazin-1-yl)methyl]-2-[1-(2,2-dimethylpropyl)-3-methyl-2-oxo-2,3-dihydro-1H-imidazo[4,5-b]pyridin-5-yl]benzonitrile] | 74 nM |
| COC(=O)NC(C)(C)c1ccc(C)c(-c2ccc3c(n2)n(C)c(=O)n3CC(C)(C)C)c1 [Compound 42-3, Methyl (1-{3-[1-(2,2-dimethylpropyl)-3-methyl-2-oxo-2,3-dihydro-1H-imidazo[4,5-b]pyridin-5-yl]-4-methylphenyl}-1-methylethyl)carbamate] | 37 nM |
| CC(=O)N1CCN(Cc2ccc(C)c(-c3ccc4c(n3)n(C)c(=O)n4CC(C)(C)C)c2)CC1 [Compound 51-9, 5-{5-[(4-acetylpiperazin-1-yl)methyl]-2-methylphenyl}-1-(2,2-dimethylpropyl)-3-methyl-1,3-dihydro-2H-imidazo[4,5-b]pyridin-2-one] | 226 nM |

More lines, now with the values ahead:

| EC50 | SMILES |
| --- | --- |
| 26 nM | Cc1ccc(CN2CCN(S(C)(=O)=O)CC2)cc1-c1ccc2c(n1)n(C)c(=O)n2CC(C)(C)C [Compound 51-10, 1-(2,2-dimethylpropyl)-3-methyl-5-(2-methyl-5-{[4-(methylsulfonyl)piperazin-1-yl]methyl}phenyl)-1,3-dihydro-2H-imidazo[4,5-b]pyridin-2-one] |
| 35 nM | Cc1ccc(CN2CCN(S(C)(=O)=O)CC2)cc1-c1ccc2c(n1)n(C)c(=O)n2CC1CC1(F)F (stereo not shown) [Compound 56-4, 1-[(2,2-difluorocyclopropyl)methyl]-3-methyl-5-(2-methyl-5-{[4-(methylsulfonyl)piperazin-1-yl]methyl}phenyl)-1,3-dihydro-2H-imidazo[4,5-b]pyridin-2-one] |
| 25 nM | Cn1c(=O)n(CC(C)(C)C)c2ccc(-c3cccc(C(C)(C)O)c3F)nc21 [Compound 60-1, 1-(2,2-dimethylpropyl)-5-[2-fluoro-3-(1-hydroxy-1-methylethyl)phenyl]-3-methyl-1,3-dihydro-2H-imidazo[4,5-b]pyridin-2-one] |
| 11 nM | Cn1c(=O)n(CC(C)(C)C)c2ccc(-c3cccc(CN4CCc5onc(O)c5C4)c3F)nc21 [Compound 61-4, 1-(2,2-dimethylpropyl)-5-{2-fluoro-3-[(3-hydroxy-6,7-dihydroisoxazolo[4,5-c]pyridin-5(4H)-yl)methyl]phenyl}-3-methyl-1,3-dihydro-2H-imidazo[4,5-b]pyridin-2-one] |
| 28 nM | CC(O)C(=O)N1CCCC(c2cccc(-c3ccc4c(n3)n(C)c(=O)n4CC(C)(C)C)c2)C1 (stereo not shown) [Compound 65-6, 1-(2,2-dimethylpropyl)-5-{3-[1-(2-hydroxypropanoyl)piperidin-3-yl]phenyl}-3-methyl-1,3-dihydro-2H-imidazo[4,5-b]pyridin-2-one] |
| 45 nM | Cn1c(=O)n(CC(C)(C)C)c2ccc(-c3cccc(N4CCN(C(=O)c5ccon5)CC4)c3)nc21 [Compound 66-4, 1-(2,2-dimethylpropyl)-5-{3-[4-(isoxazol-3-ylcarbonyl)piperazin-1-yl]phenyl}-3-methyl-1,3-dihydro-2H-imidazo[4,5-b]pyridin-2-one] |
| 43 nM | Cc1ccc(CC(C)(C)O)cc1-c1ccc2c(n1)n(C)c(=O)n2CC(C)(C)C [Compound 81-3, 1-(2,2-dimethylpropyl)-5-[5-(2-hydroxy-2-methylpropyl)-2-methylphenyl]-3-methyl-1,3-dihydro-2H-imidazo[4,5-b]pyridin-2-one] |
